Key:
[1] = Percent inhibition in hepatocyte culture system at 1/20 molar concentration of ethanol and lowered concentration of ethanol-derived AcH; type: functional, Rattus norvegicus
[2] = Percent inhibition in hepatocyte culture system in the presence of cyanamide at 1/20 molar concentration of ethanol and lowered concentration of ethanol-derived AcH; type: functional, Rattus norvegicus

Row | SMILES | Inhibition [1] | Inhibition [2]
1 | C[C@H](NC(=O)[C@H](N)C(C)(C)S)C(=O)O.Cl | 84% | –
2 | CC(C)(NC(=O)[C@H](N)C(C)(C)S)C(=O)O.Cl | – | 37%
3 | CC(C)(S)[C@@H](N)C(=O)NCC(=O)O.Cl | 79% | 33%

— ChEMBL document CHEMBL1133097, “N-Terminal dipeptides of D(-)-penicillamine as sequestration agents for acetaldehyde” (2000)
